Calls of active or inactive are those of the source. The rule behind the calls is not given here.
Tested on: CCRIS mutagenicity, Ames/micronucleus/aberration tests
Experiment: CCRIS mutagenicity studies
[1] = Test System: AMES SALMONELLA TYPHIMURIUM, Strain/Indicator: TA98, Metabolic Activation: NONE, Method: STANDARD PLATE
[2] = Test System: AMES SALMONELLA TYPHIMURIUM, Strain/Indicator: TA100, Metabolic Activation: NONE, Method: STANDARD PLATE
[3] = Test System: AMES SALMONELLA TYPHIMURIUM, Strain/Indicator: TA1535, Metabolic Activation: NONE, Method: STANDARD PLATE
[4] = Test System: AMES SALMONELLA TYPHIMURIUM, Strain/Indicator: TA1537, Metabolic Activation: NONE, Method: STANDARD PLATE
[5] = Test System: AMES SALMONELLA TYPHIMURIUM, Strain/Indicator: TA1538, Metabolic Activation: NONE, Method: STANDARD PLATE
[6] = Test System: AMES SALMONELLA TYPHIMURIUM, Strain/Indicator: TA98, Metabolic Activation: NONE, Method: PREINCUBATION
[7] = Test System: AMES SALMONELLA TYPHIMURIUM, Strain/Indicator: TA100, Metabolic Activation: NONE, Method: PREINCUBATION
[8] = Test System: AMES SALMONELLA TYPHIMURIUM, Strain/Indicator: TA98, Metabolic Activation: RAT, LIVER, S-9, AROCLOR 1254, Method: STANDARD PLATE
[9] = Test System: AMES SALMONELLA TYPHIMURIUM, Strain/Indicator: TA100, Metabolic Activation: RAT, LIVER, S-9, AROCLOR 1254, Method: STANDARD PLATE
[10] = Test System: AMES SALMONELLA TYPHIMURIUM, Strain/Indicator: TA1535, Metabolic Activation: RAT, LIVER, S-9, AROCLOR 1254, Method: STANDARD PLATE

## CC(C)(C)NCC(O)c1cc(Cl)c(N)c(C(F)(F)F)c1 (stereo unspecified)
[1]
  mutagenic call: inactive; negative
Test System: AMES SALMONELLA TYPHIMURIUM, Strain/Indicator: TA98, Metabolic Activation: RAT, LIVER, S-9, PCB, Method: STANDARD PLATE
  mutagenic call: inactive; negative
[2]
  mutagenic call: inactive; negative
Test System: AMES SALMONELLA TYPHIMURIUM, Strain/Indicator: TA100, Metabolic Activation: RAT, LIVER, S-9, PCB, Method: STANDARD PLATE
  mutagenic call: inactive; negative
[3]
  mutagenic call: inactive; negative
Test System: AMES SALMONELLA TYPHIMURIUM, Strain/Indicator: TA1535, Metabolic Activation: RAT, LIVER, S-9, PCB, Method: STANDARD PLATE
  mutagenic call: inactive; negative
[4]
  mutagenic call: inactive; negative
Test System: AMES SALMONELLA TYPHIMURIUM, Strain/Indicator: TA1537, Metabolic Activation: RAT, LIVER, S-9, PCB, Method: STANDARD PLATE
  mutagenic call: inactive; negative
[5]
  mutagenic call: inactive; negative
Test System: AMES SALMONELLA TYPHIMURIUM, Strain/Indicator: TA1538, Metabolic Activation: RAT, LIVER, S-9, PCB, Method: STANDARD PLATE
  mutagenic call: inactive; negative

## CC(C(=O)O)c1cccc(C(=O)c2ccccc2)c1 (stereo unspecified)
Test System: AMES SALMONELLA TYPHIMURIUM, Strain/Indicator: TA97A, Metabolic Activation: NONE, Method: STANDARD PLATE
  mutagenic call: inactive; negative
Test System: AMES SALMONELLA TYPHIMURIUM, Strain/Indicator: TA97A, Metabolic Activation: RAT, LIVER, S-9, PHENOBARBITAL, Method: STANDARD PLATE
  mutagenic call: inactive; negative
[2]
  mutagenic call: inactive; negative
Test System: AMES SALMONELLA TYPHIMURIUM, Strain/Indicator: TA100, Metabolic Activation: RAT, LIVER, S-9, PHENOBARBITAL, Method: STANDARD PLATE
  mutagenic call: inactive; negative
Test System: AMES SALMONELLA TYPHIMURIUM, Strain/Indicator: TA102, Metabolic Activation: NONE, Method: STANDARD PLATE
  mutagenic call: inactive; negative
Test System: AMES SALMONELLA TYPHIMURIUM, Strain/Indicator: TA102, Metabolic Activation: RAT, LIVER, S-9, PHENOBARBITAL, Method: STANDARD PLATE
  mutagenic call: inactive; negative

## O=[N+]([O-])c1cccc2c([N+](=O)[O-])cccc12
End Point: IN VITRO CHROMOSOMAL ABERRATIONS, Test System: CHL CELLS, Metabolic Activation: RAT, LIVER, S-9, SODIUM PHENOBARBITAL AND 5,6-BENZOFLAVONE
  mutagenic call: active; positive (structural changes)
Test System: AMES SALMONELLA TYPHIMURIUM, Strain/Indicator: TA98, Metabolic Activation: HAMSTER, LIVER, S-9, AROCLOR 1254 (30%), Method: PREINCUBATION
  mutagenic call: active; positive
[6]
  mutagenic call: active; positive
Test System: AMES SALMONELLA TYPHIMURIUM, Strain/Indicator: TA98, Metabolic Activation: RAT LIVER S-9, PHENOBARBITAL AND BETA-NAPHTHOFLAVONE, Method: PREINCUBATION
  mutagenic call: active; positive
Test System: AMES SALMONELLA TYPHIMURIUM, Strain/Indicator: TA98, Metabolic Activation: RAT, LIVER, S-9, AROCLOR 1254 (30%), Method: PREINCUBATION
  mutagenic call: active; positive
Test System: AMES SALMONELLA TYPHIMURIUM, Strain/Indicator: TA100, Metabolic Activation: HAMSTER, LIVER, S-9, AROCLOR 1254 (30%), Method: PREINCUBATION
  mutagenic call: active; positive
[7]
  mutagenic call: active; positive
Test System: AMES SALMONELLA TYPHIMURIUM, Strain/Indicator: TA100, Metabolic Activation: RAT LIVER S-9, PHENOBARBITAL AND BETA-NAPHTHOFLAVONE, Method: PREINCUBATION
  mutagenic call: active; positive
Test System: AMES SALMONELLA TYPHIMURIUM, Strain/Indicator: TA100, Metabolic Activation: RAT, LIVER, S-9, AROCLOR 1254 (30%), Method: PREINCUBATION
  mutagenic call: active; positive
Test System: AMES SALMONELLA TYPHIMURIUM, Strain/Indicator: TA1535, Metabolic Activation: NONE, Method: PREINCUBATION
  mutagenic call: inactive; negative
Test System: AMES SALMONELLA TYPHIMURIUM, Strain/Indicator: TA1535, Metabolic Activation: RAT LIVER S-9, PHENOBARBITAL AND BETA-NAPHTHOFLAVONE, Method: PREINCUBATION
  mutagenic call: inactive; negative
Test System: AMES SALMONELLA TYPHIMURIUM, Strain/Indicator: TA1537, Metabolic Activation: NONE, Method: PREINCUBATION
  mutagenic call: active; positive
Test System: AMES SALMONELLA TYPHIMURIUM, Strain/Indicator: TA1537, Metabolic Activation: RAT LIVER S-9, PHENOBARBITAL AND BETA-NAPHTHOFLAVONE, Method: PREINCUBATION
  mutagenic call: active; positive
Test System: AMES SALMONELLA TYPHIMURIUM, Strain/Indicator: TA1538, Metabolic Activation: NONE, Method: PREINCUBATION
  mutagenic call: active; positive
Test System: AMES SALMONELLA TYPHIMURIUM, Strain/Indicator: TA1538, Metabolic Activation: RAT LIVER S-9, PHENOBARBITAL AND BETA-NAPHTHOFLAVONE, Method: PREINCUBATION
  mutagenic call: active; positive
Test System: E.COLI, Strain/Indicator: WP2UVRA, Metabolic Activation: NONE, Method: PREINCUBATION
  mutagenic call: inactive; negative
Test System: E.COLI, Strain/Indicator: WP2UVRA, Metabolic Activation: RAT LIVER S-9, PHENOBARBITAL AND BETA-NAPHTHOFLAVONE, Method: PREINCUBATION
  mutagenic call: active; positive

## O=Cc1c([N+](=O)[O-])cccc1[N+](=O)[O-]
[6]
  mutagenic call: active; positive
Test System: AMES SALMONELLA TYPHIMURIUM, Strain/Indicator: TA98, Metabolic Activation: RAT, LIVER, S-9, PHENOBARBITAL AND 5,6-BENZOFLAVONE, Method: PREINCUBATION
  mutagenic call: inactive; negative
Test System: AMES SALMONELLA TYPHIMURIUM, Strain/Indicator: TA100(1,8-DNP6), Metabolic Activation: NONE, Method: SUSPENSION/PLATE
  mutagenic call: active; positive
Test System: AMES SALMONELLA TYPHIMURIUM, Strain/Indicator: TA100(NR), Metabolic Activation: NONE, Method: SUSPENSION/PLATE
  mutagenic call: active; positive
[7]
  mutagenic call: active; positive
Test System: AMES SALMONELLA TYPHIMURIUM, Strain/Indicator: TA100, Metabolic Activation: NONE, Method: SUSPENSION/PLATE
  mutagenic call: active; positive
Test System: AMES SALMONELLA TYPHIMURIUM, Strain/Indicator: TA100, Metabolic Activation: RAT, LIVER, S-9, PHENOBARBITAL AND 5,6-BENZOFLAVONE, Method: PREINCUBATION
  mutagenic call: active; positive

## [Cl][Pt][Cl].c1cc2c3c(c1)CCCN3CCC2
Test System: AMES SALMONELLA TYPHIMURIUM, Strain/Indicator: TA92, Metabolic Activation: NONE, Method: STANDARD PLATE
  mutagenic call: inactive; negative
[1]
  mutagenic call: inactive; negative
[2]
  mutagenic call: inactive; negative
Test System: AMES SALMONELLA TYPHIMURIUM, Strain/Indicator: TA2410, Metabolic Activation: NONE, Method: STANDARD PLATE
  mutagenic call: inactive; negative
Test System: E. COLI, Strain/Indicator: TM6, Metabolic Activation: NONE, Method: STANDARD PLATE
  mutagenic call: inactive; negative
Test System: E. COLI, Strain/Indicator: TM9, Metabolic Activation: NONE, Method: STANDARD PLATE
  mutagenic call: active; positive

## CCCCOS(=O)(=O)OCCCC
End Point: In vitro micronucleus, Test System: Chinese Hamster Ovary (CHO-WBL) cells, Metabolic Activation: None
  mutagenic call: active; positive (p<0.01)

## N#CCCl
[1]
  mutagenic call: inactive; negative
[8]
  mutagenic call: inactive; negative
Test System: AMES SALMONELLA TYPHIMURIUM, Strain/Indicator: TA100, Metabolic Activation: NONE, Method: FLUCTUATION TEST
  mutagenic call: inactive; negative
[2]
  mutagenic call: inactive; negative
Test System: AMES SALMONELLA TYPHIMURIUM, Strain/Indicator: TA100, Metabolic Activation: RAT, LIVER, S-9, AROCLOR 1254, Method: FLUCTUATION TEST
  mutagenic call: active; positive
[9]
  mutagenic call: inactive; negative
[3]
  mutagenic call: inactive; negative
[10]
  mutagenic call: inactive; negative

## BrCc1cc2c3c(cccc3c1)-c1ccccc1-2
[1]
  mutagenic call: active; positive
[2]
  mutagenic call: active; positive

## Nc1cccc2c1C(=O)c1cccc(N)c1C2=O
[1]
  mutagenic call: inactive; negative
[8]
  mutagenic call: active; positive
[2]
  mutagenic call: inactive; negative
[9]
  mutagenic call: inactive; negative
[3]
  mutagenic call: inactive; negative
[10]
  mutagenic call: inactive; negative
[4]
  mutagenic call: inactive; negative
[5]
  mutagenic call: inactive; negative
Test System: AMES SALMONELLA TYPHIMURIUM, Strain/Indicator: TA1538, Metabolic Activation: RAT, LIVER, S-9, AROCLOR 1254, Method: STANDARD PLATE
  mutagenic call: active; positive

— PubChem BioAssay AID1259407 (Chemical Carcinogenesis Research Information System (CCRIS), 2018)
